# Test results: PubChem BioAssay AID248 (DTP/NCI, 2004)
# Values joined by “and” are separate entries in the source; they are usually repeats but may differ in a detail not shown here. Identical values can stand only once. Toxic doses and inconclusive results are not listed.
# Tested on: L1210 leukemia ip in BDF1 mice, survival T/C
# Assay: NCI In Vivo Anticancer Drug Screen. Data for tumor model L1210 Leukemia (intraperitoneal) in B6D2F1 (BDF1) mice
# Conditions: endpoint: mean survival time, higher = longer survival
# Summary of the method: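 Antitumor effect is assessed in tumor-bearing animals. Survival in the compound arm is compared with a vehicle-dosed control arm and expressed as their quotient.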
# [1] = dose: 100.0 mg/kg/injection, schedule: Q04DX003 (ip), vehicle: saline with Tween-80
# [2] = dose: 100.0 mg/kg/injection, schedule: Q04DX003 (ip), vehicle: Klucel (hydroxypropylcellulose) (HPC)
# [3] = dose: 200.0 mg/kg/injection, schedule: Q04DX003 (ip), vehicle: Klucel (hydroxypropylcellulose) (HPC)
# [4] = dose: 400.0 mg/kg/injection, schedule: Q04DX003 (ip), vehicle: Klucel (hydroxypropylcellulose) (HPC)
# [5] = dose: 50.0 mg/kg/injection, schedule: Q01DX001 (ip), vehicle: saline
# [6] = dose: 100.0 mg/kg/injection, schedule: Q01DX001 (ip), vehicle: saline
# [7] = dose: 200.0 mg/kg/injection, schedule: Q01DX001 (ip), vehicle: saline
# [8] = dose: 400.0 mg/kg/injection, schedule: Q01DX001 (ip), vehicle: saline
# [9] = dose: 50.0 mg/kg/injection, schedule: Q04DX003 (ip), vehicle: saline with Tween-80
# [10] = dose: 75.0 mg/kg/injection, schedule: Q01DX001 (ip), vehicle: other
structure (smiles),measurement,setting,value
CC(C)(C)NC1=NCCO1,T/C,"dose: 25.0 mg/kg/injection, schedule: Q01DX009 (ip), vehicle: saline with Tween-80",100 % of control
same,T/C,"dose: 50.0 mg/kg/injection, schedule: Q01DX009 (ip), vehicle: saline with Tween-80",102 % of control
same,T/C,"dose: 100.0 mg/kg/injection, schedule: Q01DX009 (ip), vehicle: saline with Tween-80",96 % of control
same,T/C,[1],100 % of control
Clc1ccc2c(c1)C1c3ccccc3C2C2c3ccccc3C1c1ccccc12 (stereo unspecified),T/C,"dose: 50.0 mg/kg/injection, schedule: Q04DX002 (ip), vehicle: Klucel (hydroxypropylcellulose) (HPC)",117 % of control
same,T/C,"dose: 100.0 mg/kg/injection, schedule: Q04DX002 (ip), vehicle: Klucel (hydroxypropylcellulose) (HPC)",102 % of control
same,T/C,"dose: 200.0 mg/kg/injection, schedule: Q04DX002 (ip), vehicle: Klucel (hydroxypropylcellulose) (HPC)",95 % of control and 88 % of control
same,T/C,"dose: 400.0 mg/kg/injection, schedule: Q04DX002 (ip), vehicle: Klucel (hydroxypropylcellulose) (HPC)",88 % of control
O=C(NCCCCCCCCNC(=O)Nc1ccc(C2=NCCN2)cc1)Nc1ccc(C2=NCCN2)cc1,T/C,"dose: 25.0 mg/kg/injection, schedule: Q01DX Z (ip), vehicle: carboxymethylcellulose (CMC)",117 % of control
same,T/C,"dose: 62.0 mg/kg/injection, schedule: Q01DX Z (ip), vehicle: carboxymethylcellulose (CMC)",151 % of control
same,T/C,"dose: 62.0 mg/kg/injection, schedule: Q01DX Z (oral), vehicle: carboxymethylcellulose (CMC)",103 % of control
same,T/C,"dose: 100.0 mg/kg/injection, schedule: Q01DX Z (ip), vehicle: carboxymethylcellulose (CMC)",187 % of control
same,T/C,"dose: 125.0 mg/kg/injection, schedule: Q01DX Z (ip), vehicle: carboxymethylcellulose (CMC)",157 % of control
same,T/C,"dose: 125.0 mg/kg/injection, schedule: Q01DX Z (oral), vehicle: carboxymethylcellulose (CMC)",111 % of control
same,T/C,"dose: 150.0 mg/kg/injection, schedule: Q01DX Z (ip), vehicle: carboxymethylcellulose (CMC)",213 % of control
same,T/C,"dose: 250.0 mg/kg/injection, schedule: Q01DX Z (ip), vehicle: carboxymethylcellulose (CMC)",114 % of control
same,T/C,"dose: 250.0 mg/kg/injection, schedule: Q01DX Z (oral), vehicle: carboxymethylcellulose (CMC)",109 % of control
same,T/C,"dose: 500.0 mg/kg/injection, schedule: Q01DX Z (oral), vehicle: carboxymethylcellulose (CMC)",120 % of control
CC1(O)CCC2CC1C2(C)CO (stereo unspecified),T/C,"dose: 50.0 mg/kg/injection, schedule: Q04DX003 (ip), vehicle: Klucel (hydroxypropylcellulose) (HPC)",108 % of control
same,T/C,[2],101 % of control
same,T/C,[3],106 % of control
same,T/C,[4],111 % of control
CCOC(=O)c1cc(N(CCOS(C)(=O)=O)CCOS(C)(=O)=O)ccc1[N+](=O)[O-],T/C,[5],103 % of control
same,T/C,[6],97 % of control
same,T/C,[7],97 % of control
same,T/C,[8],97 % of control
Nc1ncnc2c1ncn2CCC(O)c1ccccc1 (stereo unspecified),T/C,[5],95 % of control
same,T/C,[6],93 % of control
same,T/C,[7],95 % of control
same,T/C,[8],93 % of control
N=C(N)c1ccccc1,T/C,"dose: 100.0 mg/kg/injection, schedule: Q01DX Z (ip), vehicle: methylcellulose (MC)",94 % of control
same,T/C,"dose: 150.0 mg/kg/injection, schedule: Q01DX Z (ip), vehicle: methylcellulose (MC)",96 % of control and 89 % of control
NC(=O)CSc1cc(Cl)c(Cl)cc1Cl,T/C,[9],103 % of control
same,T/C,[1],106 % of control
same,T/C,"dose: 200.0 mg/kg/injection, schedule: Q04DX003 (ip), vehicle: saline with Tween-80",90 % of control
COC(=O)/C=C(\C)Nc1ccc(Cc2ccc(N/C(C)=C/C(=O)OC)cc2)cc1,T/C,[6],95 % of control
same,T/C,[7],86 % of control
CCOC(=O)C1(C(=O)OCC)CCC(O)N1C(=O)Cc1ccccc1[N+](=O)[O-] (stereo unspecified),T/C,[2],100 % of control
same,T/C,[3],103 % of control
same,T/C,[4],99 % of control
COc1ccc(C(=O)N/N=C/C(CC(O)CO)=N/NC(=O)c2ccc(OC)cc2)cc1 (stereo unspecified),T/C,[2],95 % of control
same,T/C,[3],92 % of control
same,T/C,[4],96 % of control
CCC[CH2][Sn]([CH2]CCC)([CH2]CCC)[N]=C=S,T/C,"dose: 0.39 mg/kg/injection, schedule: Q01DX001 (ip), vehicle: saline with Tween-80",89 % of control
same,T/C,"dose: 0.78 mg/kg/injection, schedule: Q01DX001 (ip), vehicle: saline with Tween-80",93 % of control
same,T/C,"dose: 1.56 mg/kg/injection, schedule: Q01DX001 (ip), vehicle: saline with Tween-80",105 % of control
CC(C)[PH+]1c2ccccc2-c2ccccc21.CC(C)[PH+]1c2ccccc2-c2ccccc21.[Cl][Pt][Cl],T/C,"dose: 12.5 mg/kg/injection, schedule: Q04DX003 (ip), vehicle: saline with Tween-80",98 % of control
same,T/C,"dose: 25.0 mg/kg/injection, schedule: Q04DX003 (ip), vehicle: saline with Tween-80",98 % of control
same,T/C,[9],98 % of control
CSc1ncnc2c1ncn2CC(=O)C1CCC2C3CCC4=CC(=O)CCC4(C)C3CCC12C (stereo unspecified),T/C,"dose: 100.0 mg/kg/injection, schedule: Q01DX001 (sc), vehicle: steriod suspending solution",99 % of control
same,T/C,"dose: 200.0 mg/kg/injection, schedule: Q01DX001 (sc), vehicle: steriod suspending solution",100 % of control
same,T/C,"dose: 400.0 mg/kg/injection, schedule: Q01DX001 (sc), vehicle: steriod suspending solution",99 % of control
O=C(O)C(CCC(C(=O)O)c1ccccc1)c1ccccc1 (stereo unspecified),T/C,[10],110 % of control
same,T/C,"dose: 150.0 mg/kg/injection, schedule: Q01DX001 (ip), vehicle: other",116 % of control
same,T/C,"dose: 300.0 mg/kg/injection, schedule: Q01DX001 (ip), vehicle: other",95 % of control
CCCC1(CC(C)CC)C(=O)NC(=O)NC1=O (stereo unspecified),T/C,"dose: 75.0 mg/kg/injection, schedule: Q01DX001 (ip), vehicle: saline",100 % of control
same,T/C,"dose: 150.0 mg/kg/injection, schedule: Q01DX001 (ip), vehicle: saline",96 % of control
same,T/C,"dose: 300.0 mg/kg/injection, schedule: Q01DX001 (ip), vehicle: saline",98 % of control
CN(C)CCCNc1nc(Cl)nc(Cl)n1,T/C,"dose: 50.0 mg/kg/injection, schedule: Q01DX009 (ip), vehicle: saline",96 % of control
same,T/C,"dose: 100.0 mg/kg/injection, schedule: Q01DX009 (ip), vehicle: saline",92 % of control
same,T/C,"dose: 200.0 mg/kg/injection, schedule: Q01DX009 (ip), vehicle: saline",96 % of control
C/C(CCCC(C)(C)C(=O)O)=N/Nc1ccc([N+](=O)[O-])cc1[N+](=O)[O-],T/C,[10],93 % of control
Cc1c2ccncc2cc2c3ccccc3n(CC3CO3)c12 (stereo unspecified),T/C,"dose: 37.5 mg/kg/injection, schedule: Q01DX009 (ip), vehicle: Klucel (hydroxypropylcellulose) (HPC)",96 % of control
same,T/C,"dose: 37.5 mg/kg/injection, schedule: Q04DX003 (ip), vehicle: Klucel (hydroxypropylcellulose) (HPC)",104 % of control
same,T/C,"dose: 75.0 mg/kg/injection, schedule: Q01DX009 (ip), vehicle: Klucel (hydroxypropylcellulose) (HPC)",96 % of control
same,T/C,"dose: 75.0 mg/kg/injection, schedule: Q04DX003 (ip), vehicle: Klucel (hydroxypropylcellulose) (HPC)",106 % of control and 119 % of control
same,T/C,"dose: 150.0 mg/kg/injection, schedule: Q01DX009 (ip), vehicle: Klucel (hydroxypropylcellulose) (HPC)",100 % of control
same,T/C,"dose: 150.0 mg/kg/injection, schedule: Q04DX003 (ip), vehicle: Klucel (hydroxypropylcellulose) (HPC)",113 % of control
same,T/C,"dose: 300.0 mg/kg/injection, schedule: Q01DX009 (ip), vehicle: Klucel (hydroxypropylcellulose) (HPC)",102 % of control
CCC(C)(CC)c1ccc(O)c(C)c1,T/C,"dose: 100.0 mg/kg/injection, schedule: Q01DX009 (sc), vehicle: olive oil, sesame oil, peanut oil",104 % of control
same,T/C,"dose: 100.0 mg/kg/injection, schedule: Q04DX003 (sc), vehicle: olive oil, sesame oil, peanut oil",104 % of control
same,T/C,"dose: 200.0 mg/kg/injection, schedule: Q01DX009 (sc), vehicle: olive oil, sesame oil, peanut oil",112 % of control
same,T/C,"dose: 200.0 mg/kg/injection, schedule: Q04DX003 (sc), vehicle: olive oil, sesame oil, peanut oil",106 % of control
same,T/C,"dose: 400.0 mg/kg/injection, schedule: Q01DX009 (sc), vehicle: olive oil, sesame oil, peanut oil",101 % of control
same,T/C,"dose: 400.0 mg/kg/injection, schedule: Q04DX003 (sc), vehicle: olive oil, sesame oil, peanut oil",108 % of control
CC12CCC(Cl)(CC1)CC2=O,T/C,"dose: 100.0 mg/kg/injection, schedule: Q04DX002 (ip), vehicle: saline",95 % of control
same,T/C,"dose: 200.0 mg/kg/injection, schedule: Q04DX002 (ip), vehicle: saline",95 % of control
same,T/C,"dose: 400.0 mg/kg/injection, schedule: Q04DX002 (ip), vehicle: saline",98 % of control
CN(C)C1CCC(C=C(C2CCC(CC(=O)O)CC2)C2CCC(CC(=O)O)CC2)CC1 (stereo unspecified),T/C,"dose: 100.0 mg/kg/injection, schedule: Q04DX002 (ip), vehicle: saline with Tween-80",111 % of control
same,T/C,"dose: 200.0 mg/kg/injection, schedule: Q04DX002 (ip), vehicle: saline with Tween-80",101 % of control
same,T/C,"dose: 400.0 mg/kg/injection, schedule: Q04DX002 (ip), vehicle: saline with Tween-80",105 % of control
